28 molecules from ChEMBL document CHEMBL1148291, “Prediction of human volume of distribution values for neutral and basic drugs. 2. Extended data set and leave-class-out statistics” (J Med Chem, 2004) can be followed below.

Series [1] is described as follows: in vitro. The conditions noted are these: human, plasma.
Description: Unbound fraction (plasma)
Series [2] can be described thus: clinical. As to conditions: human, in vivo; call rule not given here.
Series [3] can be described thus: Ionization constant (pKa). Type of series: physicochemical.
The conditions of series [4]: human, plasma.
Description: Unbound fraction (plasma)

As a reminder, the pKa is the negative logarithm of the acid dissociation constant. What is called fraction unbound is free concentration divided by total concentration. For `C#CCCCC(=O)c1cc(C(C)(C)C)c(O)c(C(C)(C)C)c1` [TEBUFELONE], the pKa entry is “Not Active”. Moreover, in series [1], the fraction unbound came to 0.0007.

What is called Vd is a proportionality between amount in the body and measured concentration, not a real space. A higher Vd goes with wide distribution into tissue. `OCCN1CCN(CCCN2c3ccccc3Sc3ccc(Cl)cc32)CC1` [PERPHENAZINE] registered a Vd in series [2] of 20 L/kg. Besides, in series [3], the pKa worked out at 8.11. The Fu in series [4] is 0.07.

As to `C[N+](C)([O-])CCC=C1c2ccccc2CCc2ccccc21` [AMITRIPTYLINOXIDE], the pKa result was “Not Active”. Moreover, in series [2], the Vd worked out at 1.2 L/kg. Further, the fraction unbound in series [1] was determined as 0.2.

With `CC(C)(C)NCC(O)COc1cccc2c1C[C@H](O)[C@H](O)C2` (stereo not given in full) [NADOLOL], the Vd in series [2] is 1.94 L/kg. The Fu in series [4] was 0.7.

As for `CN1CCN2c3ncccc3Cc3ccccc3C2C1` (stereo not given) [MIRTAZAPINE], the Vd in series [2] was determined as 4.8 L/kg. This molecule gave a pKa in series [3] of 7.3.

As for `CC(C)(C)NC[C@H](O)COc1nsnc1N1CCOCC1` [TIMOLOL], the Vd in series [2] is 3.5 L/kg. In series [3], this molecule showed a pKa of 8.8.

In turn, `CC(C)NCC(O)COc1ccc(CCOCC2CC2)cc1` (stereo not given) [BETAXOLOL] came in with a Vd in series [2] of 6.08 L/kg. In series [3], this molecule returned a pKa of 9.21.

Consider `CN1C(=O)C(O)N=C(c2ccccc2Cl)c2cc(Cl)ccc21` (stereo not given) [LORMETAZEPAM], for which the pKa result is reported as “Not Active”. In series [2], this molecule displayed a Vd of 1.5 L/kg.

`CNCC[C@@H](Oc1ccccc1C)c1ccccc1` [ATOMOXETINE] displayed a Vd in series [2] of 0.85 L/kg. The pKa in series [3] is 10.1.

With `CC(C)NCC(O)COc1ccc(COCCOC(C)C)cc1` (stereo not given) [BISOPROLOL], in series [2], the Vd amounted to 3.31 L/kg. Besides, the pKa in series [3] was 9.57. In series [1], this molecule returned a fraction unbound of 0.7.

In series [2], `CCN(CC)CCCC(C)Nc1c2ccc(Cl)cc2nc2ccc(OC)cc12` (stereo not given) [QUINACRINE] came in with a Vd of 124 L/kg. Besides, in series [3], the pKa amounted to 7.73.

Turning to `Cc1ccc(O)c(C(CCN(C(C)C)C(C)C)c2ccccc2)c1` (single isomer, unassigned) [TOLTERODINE], in series [3], the pKa stood at 9.8.

As to `O=C1CN=C(c2ccccn2)c2cc(Br)ccc2N1` [BROMAZEPAM], the pKa entry is “Not Active”. This molecule came in with a fraction unbound in series [1] of 0.39.

In series [2], `CN(C)CCCN1c2ccccc2Sc2ccccc21` [PROMAZINE] yielded a volume of distribution (Vd) of 7.5 L/kg. In addition, in series [3], the pKa came to 9.28. Also, in series [1], the fraction unbound was found to be 0.11.

With `COc1cc2c(c(OC)c1OC)-c1ccc(OC)c(=O)cc1[C@@H](NC(C)=O)CC2` [COLCHICINE], the pKa entry is “Not Active”. The Vd in series [2] is 5.2 L/kg.

In series [2], `CCN(C)C(=O)Oc1cccc([C@H](C)N(C)C)c1` [RIVASTIGMINE] returned a Vd of 2.2 L/kg. Further, the pKa in series [3] is 8.99. The fraction unbound in series [1] was found to be 0.6.

In the case of `Cc1cc(=O)n(-c2ccccc2)n1C` [ANTIPYRINE], the pKa entry was “Not Active”. In series [2], this molecule had a Vd of 0.6 L/kg.

Regarding `Oc1ncnc2[nH]ncc12` [ALLOPURINOL], the pKa result is “Not Active”. The same molecule showed a Vd in series [2] of 0.6 L/kg.

As to `C[C@]12CCC(=O)C=C1CC[C@@H]1[C@@H]2[C@@H](O)C[C@@]2(C)[C@H]1CC[C@]2(O)C(=O)CO` [HYDROCORTISONE], the pKa entry was “Not Active”. The molecule further displayed a Vd in series [2] of 0.44 L/kg. Moreover, in series [1], the fraction unbound turned out to be 0.09.

In series [3], `CC(CCc1ccccc1)NCC(O)c1ccc(O)c(C(N)=O)c1` (stereo not given) [LABETALOL] had a pKa of 7.4.

In turn, `Cc1ccccc1OCC(O)CNCCOc1ccc(C(N)=O)cc1` (stereo not given) [TOLAMOLOL] yielded a Vd in series [2] of 3.2 L/kg. The molecule also displayed a pKa in series [3] of 7.9. Besides, in series [1], the fraction unbound is 0.09.

`CC(C)NCC(O)c1ccc(NS(C)(=O)=O)cc1` (stereo not given) [SOTALOL] gave a Vd in series [2] of 0.9 L/kg. Moreover, the pKa in series [3] was determined as 9.76. In series [1], this molecule had a fraction unbound of 1.

As to `CC(=O)O[C@H]1C(=O)[C@@]2(C)[C@H]([C@H](OC(=O)c3ccccc3)[C@]3(O)C[C@H](OC(=O)[C@H](O)[C@@H](NC(=O)c4ccccc4)c4ccccc4)C(C)=C1C3(C)C)[C@]1(OC(C)=O)CO[C@@H]1C[C@@H]2O` [PACLITAXEL], the pKa result is “Not Active”. In addition, the fraction unbound in series [1] was found to be 0.07.

Turning to `C[C@@H](c1ncncc1F)[C@](O)(Cn1cncn1)c1ccc(F)cc1F` [VORICONAZOLE], the pKa result is “Not Active”. In series [2], this molecule displayed a Vd of 4.6 L/kg. In addition, the fraction unbound in series [1] was determined as 0.42.

In the case of `OC(CNCC(O)C1CCc2cc(F)ccc2O1)C1CCc2cc(F)ccc2O1` (stereo not given) [NEBIVOLOL], in series [2], the Vd worked out at 11.2 L/kg. Further, the pKa in series [3] turned out to be 8.22. The molecule also registered a fraction unbound in series [1] of 0.02.

For the molecule `CC(CN(C)C)CN1c2ccccc2CCc2ccccc21` (stereo not given) [TRIMIPRAMINE], the Vd in series [2] turned out to be 31 L/kg. Further, the pKa in series [3] was 9.24. This molecule came in with a fraction unbound in series [1] of 0.05.

For the molecule `CNCCC=C1c2ccccc2CCc2ccccc21` [NORTRIPTYLINE], in series [2], the Vd worked out at 19.1 L/kg. Also, in series [3], the pKa is 10.1.

Consider `OC(Cn1cncn1)(Cn1cncn1)c1ccc(F)cc1F` [FLUCONAZOLE], for which the pKa entry is listed as “Not Active”. In addition, the Vd in series [2] is 0.6 L/kg.
